Laboratory results from ChEMBL document CHEMBL1150980, “Potent inhibitors of neutral endopeptidase. 2-Biphenyl- methylglutaric acid amide derivatives” (Bioorg Med Chem Lett, 1996).

Target: T1, Neprilysin (Rattus norvegicus, UniProt P07861)
T1 sequence (P07861 whole entry): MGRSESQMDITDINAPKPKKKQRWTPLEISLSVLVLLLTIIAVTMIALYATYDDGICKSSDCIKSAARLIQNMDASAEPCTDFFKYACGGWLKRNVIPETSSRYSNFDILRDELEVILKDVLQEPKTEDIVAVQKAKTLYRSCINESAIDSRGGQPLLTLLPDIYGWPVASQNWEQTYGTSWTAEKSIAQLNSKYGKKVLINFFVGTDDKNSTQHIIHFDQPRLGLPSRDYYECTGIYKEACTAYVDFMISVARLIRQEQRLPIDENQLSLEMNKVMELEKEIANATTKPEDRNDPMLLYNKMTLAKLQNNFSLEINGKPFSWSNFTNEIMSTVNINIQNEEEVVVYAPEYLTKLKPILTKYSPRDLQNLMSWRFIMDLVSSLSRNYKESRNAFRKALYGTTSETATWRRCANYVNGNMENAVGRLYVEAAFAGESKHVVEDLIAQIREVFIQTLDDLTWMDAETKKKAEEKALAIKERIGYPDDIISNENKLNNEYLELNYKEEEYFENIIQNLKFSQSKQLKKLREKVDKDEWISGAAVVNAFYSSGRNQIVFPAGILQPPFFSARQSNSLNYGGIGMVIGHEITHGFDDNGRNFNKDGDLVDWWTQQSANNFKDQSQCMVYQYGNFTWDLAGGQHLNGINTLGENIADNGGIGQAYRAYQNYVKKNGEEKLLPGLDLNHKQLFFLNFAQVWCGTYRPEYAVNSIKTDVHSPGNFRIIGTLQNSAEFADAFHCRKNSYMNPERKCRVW
Assay: In vitro inhibitory activity against neutral endopeptidase (NEP) from rat kidney

IC50	Structure (SMILES)
5.9 nM	O=C(O)CNC(=O)[C@H](Cc1ccc(-c2ccccc2)cc1)CC(COc1ccccc1)C(=O)O (stereo not given in full)

Target: T1, Neprilysin
Assay: In vitro inhibition of neutral endopeptidase from rat kidney.

Structure (SMILES)	IC50
CCCC[C@H](C[C@H](Cc1ccc(-n2cccn2)cc1)C(=O)NCC(=O)O)C(=O)O	366 nM
O=C(O)CC[C@@H](Cc1ccc(-c2ccccc2)cc1)C(=O)NCC(=O)O	2.3 nM
O=C(O)CNC(=O)[C@H](Cc1ccc(-c2ccccc2)cc1)C[C@@H](COc1ccccc1)C(=O)O	3.2 nM
O=C(O)CNC(=O)[C@@H](C[C@H](COc1ccccc1)C(=O)O)Oc1ccc(-c2ccccc2)cc1	> 1000 nM
O=C(O)CNC(=O)[C@H](Cc1ccc(-c2ccccc2)cc1)C[C@H](COc1ccccc1)C(=O)O	5.9 nM
CC(CC(Cc1ncc(-c2ccccc2)cn1)C(=O)NCC(=O)O)C(=O)O (stereo not given)	> 1000 nM
CSCCC(NC(=O)[C@H](Cc1ccc(-c2ccccc2)cc1)CC(COc1ccccc1)C(=O)O)C(=O)O (mixture of isomers)	101 nM
O=C(O)CNC(=O)[C@H](Cc1ccc(-c2ccccc2)cc1)CC(COc1ccccc1)C(=O)O (single isomer, unassigned; isomer A)	3.2 nM
COCCOCC(CC(Cc1ccccc1)C(=O)NCC(=O)O)C(=O)O (single isomer, unassigned; isomer A)	> 1000 nM
COCCOCC(CC(Cc1ccccc1)C(=O)NCC(=O)O)C(=O)O (single isomer, unassigned; isomer B)	945 nM
C[C@@H](NC(=O)[C@H](Cc1ccc(-c2ccccc2)cc1)CC(COc1ccccc1)C(=O)O)C(=O)O (stereo in doubt; form 1)	13 nM
C[C@@H](NC(=O)[C@H](Cc1ccc(-c2ccccc2)cc1)CC(COc1ccccc1)C(=O)O)C(=O)O (stereo in doubt; form 2)	8.7 nM

Other lines, results leading:

IC50	Structure (SMILES)
> 1000 nM	CCC/C=C(/C[C@@H](Cc1ccc(-n2cccn2)cc1)C(=O)NCC(=O)O)C(=O)O
20 nM	CC(NC(=O)[C@H](Cc1ccc(-c2ccccc2)cc1)CC(COc1ccccc1)C(=O)O)C(=O)O (mixture of isomers)
> 1000 nM	O=C(O)CNC(=O)C(Cc1ccccc1)CC(COc1ccccc1)C(=O)O (single isomer, unassigned; isomer A)
407 nM	O=C(O)CNC(=O)C(Cc1ccccc1)CC(COc1ccccc1)C(=O)O (single isomer, unassigned; isomer B)
> 1000 nM	O=C(O)C(COc1ccccc1)C[C@@H](Cc1ccc(-c2ccccc2)cc1)C(=O)N1CCCC1C(=O)O (single isomer, unassigned; isomer B)
2.8 nM	CC(NC(=O)[C@H](Cc1ccc(-c2ccccc2)cc1)CC(COc1ccccc1)C(=O)O)C(=O)O (stereo in doubt)
> 1000 nM	O=C(O)C(COc1ccccc1)C[C@@H](Cc1ccc(-c2ccccc2)cc1)C(=O)N1CCCC1C(=O)O (stereo in doubt)
